Data set [1] deals with T1, NDH-2B (Staphylococcus aureus, UniProt Q2FZW0).
T1 construct: gene SAOUHSC_00875
T1 sequence (Q2FZW0 1-354): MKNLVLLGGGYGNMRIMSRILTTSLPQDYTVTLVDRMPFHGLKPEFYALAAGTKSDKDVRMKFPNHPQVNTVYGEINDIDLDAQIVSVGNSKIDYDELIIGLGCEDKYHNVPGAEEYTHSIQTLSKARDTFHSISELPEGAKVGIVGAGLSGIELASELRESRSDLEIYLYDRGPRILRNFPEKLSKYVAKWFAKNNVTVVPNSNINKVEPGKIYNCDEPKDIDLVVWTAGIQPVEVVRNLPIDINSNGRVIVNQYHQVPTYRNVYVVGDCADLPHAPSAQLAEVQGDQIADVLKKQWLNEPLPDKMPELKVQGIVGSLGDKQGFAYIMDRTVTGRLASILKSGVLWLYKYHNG
Briefly: tryptophan fluorescence quenching titration and STD-NMR; KM […] in steady-state kinetics. The format is binding.

Data set [2] deals with T1, NDH-2B. Briefly: co-purified flavin identified by HPLC and UV-visible spectrum. The format is binding.
Data set [3] deals with T1, NDH-2B. Briefly: steady-state NADPH:DMN oxidoreductase inhibition (Ki app); also tryptophan fluorescence quenching titration. The format is biochemical.
Another data set deals with T2, NDH-2A (Staphylococcus aureus, UniProt Q2FZV7).
T2 construct: gene SAOUHSC_00878
Briefly: NADH:DMN oxidoreductase specific activity of purified enzyme, pH […]. Type of data set: biochemical.

Data set [4] deals with T1, NDH-2B. As to the kind of experiment: NADH:DMN oxidoreductase specific activity of purified enzyme. Type of data set: biochemical.
Data set [5] deals with T1, NDH-2B. Briefly: tryptophan fluorescence quenching titration and STD-NMR. Type of data set: binding.
Data set [6] concerns the target T1, NDH-2B. Briefly: tryptophan fluorescence quenching titration. The format is binding.
Substrate in the data set “purified protein”: NC(=O)C1=CN([C@@H]2O[C@H](COP(=O)(O)OP(=O)(O)OC[C@H]3O[C@@H](n4cnc5c(N)ncnc54)[C@H](OP(=O)(O)O)[C@@H]3O)[C@@H](O)[C@H]2O)C=CC1
As to the kind of experiment: purified protein. Type of data set: biochemical, Staphylococcus aureus. Conditions: FAD binding site different from that of the quinone; pH 7.0.

T2 sequence (Q2FZV7 whole entry): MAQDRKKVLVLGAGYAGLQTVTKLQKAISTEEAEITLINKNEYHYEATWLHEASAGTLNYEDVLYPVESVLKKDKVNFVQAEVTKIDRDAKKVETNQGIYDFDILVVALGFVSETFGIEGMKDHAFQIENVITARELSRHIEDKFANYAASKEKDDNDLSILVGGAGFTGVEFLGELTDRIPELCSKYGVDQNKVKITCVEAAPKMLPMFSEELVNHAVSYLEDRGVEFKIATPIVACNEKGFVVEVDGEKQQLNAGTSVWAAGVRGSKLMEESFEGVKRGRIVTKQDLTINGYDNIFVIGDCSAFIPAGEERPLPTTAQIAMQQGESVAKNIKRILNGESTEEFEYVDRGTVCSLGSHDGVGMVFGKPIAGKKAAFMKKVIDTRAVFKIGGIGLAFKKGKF

On NDH-2B [1], `CC1=C(C)C(=O)c2ccccc2C1=O` [DMN, 2,3-dimethyl-1,4-naphthoquinone] displayed a dissociation constant (Kd) of 160 ± 35 µM.
Turning to `Cc1cc2nc3c(=O)[nH]c(=O)nc-3n(C[C@H](O)[C@H](O)[C@H](O)COP(=O)(O)OP(=O)(O)OC[C@H]3O[C@@H](n4cnc5c(N)ncnc54)[C@H](O)[C@@H]3O)c2cc1C` [FAD, flavin adenine dinucleotide], the “co-purified flavin identified by HPLC and UV-visible spectrum” value on NDH-2B [2] is given as “Subsequent HPLC analysis confirmed the flavin as flavin adenine dinucleotide (FAD)”.
As to `CCCCCCCc1cc(O)c2ccccc2[n+]1[O-]` [HQNO, 2-n-heptyl-4-hydroxyquinoline-N-oxide], on NDH-2B [3], the Ki came to 6.4 ± 1.25 µM.
For `NC(=O)C1=CN([C@@H]2O[C@H](COP(=O)(O)OP(=O)(O)OC[C@H]3O[C@@H](n4cnc5c(N)ncnc54)[C@H](O)[C@@H]3O)[C@@H](O)[C@H]2O)C=CC1` [NADH], the NDH-2A at NDH-2A was determined as 122.10 ± 18.30 µmol/min/mg. At NDH-2B [4], the NDH-2B was 34.03 ± 0.86 µmol/min/mg.
Regarding `NC(=O)c1ccc[n+]([C@@H]2O[C@H](COP(=O)(O)OP(=O)(O)OC[C@H]3O[C@@H](n4cnc5c(N)ncnc54)[C@H](OP(=O)(O)O)[C@@H]3O)[C@@H](O)[C@H]2O)c1` [NADP^+], the Kd at NDH-2B [5] amounted to 182 ± 29 µM.
At NDH-2B [6], `NC(=O)c1ccc[n+]([C@@H]2O[C@H](COP(=O)([O-])OP(=O)(O)OC[C@H]3O[C@@H](n4cnc5c(N)ncnc54)[C@H](O)[C@@H]3O)[C@@H](O)[C@H]2O)c1` [NAD^+] returned a dissociation constant (Kd) of 170 ± 7.6 µM.

B1: NDH-2B (Staphylococcus aureus subsp. aureus NCTC 8325) (protein)
chain: MKNLVLLGGGYGNMRIMSRILTTSLPQDYTVTLVDRMPFHGLKPEFYALAAGTKSDKDVRMKFPNHPQVNTVYGEINDIDLDAQIVSVGNSKIDYDELIIGLGCEDKYHNVPGAEEYTHSIQTLSKARDTFHSISELPEGAKVGIVGAGLSGIELASELRESRSDLEIYLYDRGPRILRNFPEKLSKYVAKWFAKNNVTVVPNSNINKVEPGKIYNCDEPKDIDLVVWTAGIQPVEVVRNLPIDINSNGRVIVNQYHQVPTYRNVYVVGDCADLPHAPSAQLAEVQGDQIADVLKKQWLNEPLPDKMPELKVQGIVGSLGDKQGFAYIMDRTVTGRLASILKSGVLWLYKYHNG
With B1, the Km in the data set “purified protein” is listed as 80.4 ± 7.7 µM.

The record behind these values is publication PMC11302666, “The two alternative NADH:quinone oxidoreductases from Staphylococcus aureus: two players with different molecular and cellular roles” (Microbiology Spectrum, 2024).
